Test systems include NCI-H226 lung; TK-10 renal; SF-295 CNS; SNB-19 CNS; UACC-257 melanoma; SF-268 CNS; HCT-15 colon; DMS 114 small cell lung; DMS 273 small cell lung; IGROV1 ovarian; SK-MEL-5 melanoma; HL-60(TB) leukemia; MALME-3M melanoma; SK-MEL-2 melanoma; SF-539 CNS; EKVX NSCLC; NCI-H460 lung; OVCAR-8 ovarian; SN12C renal; LOX IMVI melanoma.
What all share (experiment): inhibition of tumour cell growth, NCI panel, 48 h

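Dose response: 5 concentrations. Exposure: 48 h. Format: 96-well plates. Endpoint: linear interpolation; highest concentration if not reached. TGI: total growth inhibition.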

For the compound `Cn1c(=O)c(C#N)c(O)c2cc3ccccc3nc21`, the TGI in the test on NCI-H226 lung, with TK-10 renal, in the test on SF-295 CNS, in the test on SNB-19 CNS, in the test on UACC-257 melanoma and in the test on SF-268 CNS was above 100 µM each time. In addition, the TGI with HCT-15 colon, in the test with DMS 114 small cell lung, in the test with DMS 273 small cell lung, in the test with IGROV1 ovarian, in the test with SK-MEL-5 melanoma and with HL-60(TB) leukemia was above 100 µM in each case. Further, the TGI in the test on MALME-3M melanoma, in the test with SK-MEL-2 melanoma, with SF-539 CNS, in the test on EKVX NSCLC, in the test on NCI-H460 lung and in the test with OVCAR-8 ovarian was above 100 µM each time. For the same compound, the TGI in the test on SN12C renal and in the test on LOX IMVI melanoma was above 100 µM in each case.

Regarding `Cc1c(N(Cc2ccccc2)Cc2ccccc2)nc(S(C)(=O)=O)nc1S(C)(=O)=O`, the TGI is 25.8 µM in the test on NCI-H226 lung; 15.7 µM in the test with TK-10 renal; 31.5 µM in the test on SF-295 CNS; 26.1 µM with SNB-19 CNS; 3.76 µM in the test with UACC-257 melanoma; 3.74 µM with SF-268 CNS. Further, the TGI was determined as 6.4 µM with HCT-15 colon; 3.24 µM in the test with DMS 114 small cell lung; 4.29 µM in the test with DMS 273 small cell lung; 3.21 µM with IGROV1 ovarian; 25.3 µM in the test on SK-MEL-5 melanoma; 4.28 µM in the test on HL-60(TB) leukemia. Moreover, the TGI was 17.6 µM with MALME-3M melanoma; 30.6 µM in the test with SK-MEL-2 melanoma; 25.7 µM in the test with SF-539 CNS; 3.01 µM in the test on EKVX NSCLC; 22.1 µM in the test with NCI-H460 lung; 3.29 µM with OVCAR-8 ovarian. Also, the TGI with SN12C renal is 4.28 µM; with LOX IMVI melanoma, 3.24 µM.

The values above are taken from PubChem BioAssay (NCI).
